Values of other authors in patent US9884017B2, “Foamable vehicles and pharmaceutical compositions comprising aprotic polar solvents and uses thereof” (Foamix Pharmaceuticals Ltd., priority 2009, dated 2018).

Conditions: 25° C.

| SMILES | Dielectric constant | Polarity [Debye] |
| --- | --- | --- |
| CN(C)C=O [DMF, dimethylformamide] | 36.7 | 3.8 |
| C[S+](C)[O-] [DMSO, Dimethyl sulfoxide] | 46.4 | 4.3 |
